Key:
[1] = test system: OV2423 patient derived ovarian cancer; experiment: Tumor growth response in OV2423 patient derived ovarian cancer xenograft mouse model; conditions: 4.54/0.150 mg/kg (antibody/payload) intravenously on day 1; Day 22; female BALB/c nude mice
Description: Female BALB/c nude mice were implanted subcutaneously with OV2423 patient derived ovarian cancer tumor fragments (˜2-3 mm^3 per mouse). Animals were randomized into treatment groups when tumor volumes were between 101-230 mm^3 (mean=155mm^3/group) (n=8/group). Vehicle, palivizumab isotype control conjugate (prepared as described in US Patent Application No. 2022/0233707A1, 4.54/0.150 mg/kg) and XMT-1660 (4.61/0.150 mg/kg, DAR 6) were dosed intravenously on day 1 (all doses are given by antibody/payload).

[2] = test system: mBR9013 syngeneic breast cancer; experiment: Tumor growth response in mBR9013 syngeneic breast cancer mouse model; conditions: for TGI (tumor volume compared to vehicle control): day 15, female FVB/NJ mice
Description: Female FVB/NJ mice were implanted subcutaneously with mBR9013 tumor fragments (2-3 mm^3). Animals were randomized into treatment groups when tumor volumes were between 96-277 mm^3 (mean=148 mm^3/group) (n=8/group). […] Vehicle, isotype control conjugate and XMT-1660 were dosed intravenously.

palivizumab isotype control conjugate
TGI (tumor volume compared to vehicle control) [1]: 24.8% | TGI (tumor volume compared to vehicle control) ([2]; 1.51/0.050 mg/kg (antibody/payload) intravenously on day 1): −7.91% | TGI (tumor volume compared to vehicle control) ([2]; 4.54/0.150 mg/kg (antibody/payload) intravenously on day 1): 32.02% | body weight loss or clinical observations ([2]; mouse, in vivo): No significant body weight loss or clinical observations
